ChEMBL document CHEMBL1201862, “PubChem BioAssay data set” (2004)
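In this assay, cells in 96-well plates receive the compound at five concentrations for 48 hours. Endpoints are linearly interpolated between the surrounding concentrations. GI50 = concentration required for 50% inhibition of growth.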 Active and inactive are the calls of the source. Cut-off read from the data, not from the text of the source: active = GI50 up to about 1.1 µM and inactive = higher.

Columns and labels:
Assay in all cases: NCI-60 cell line screen, 48 h
[1] = system: A498
[2] = system: ACHN
[3] = system: CCRF-CEM
[4] = system: EKVX
[5] = system: HCC 2998
[6] = system: HCT-116
[7] = system: HL-60
[8] = system: Hs-578T
[9] = system: K562
[10] = system: KM-20L2
[11] = system: LOX IMVI
[12] = system: NCI-H460
[13] = system: OVCAR-3
[14] = system: OVCAR-5
[15] = system: RPMI-8226
[16] = system: SF-268
[17] = system: SNB-19
[18] = system: SNB-75
[19] = system: SR
[20] = system: TK-10

CCCCCCCCCCCCCCCC(=O)OCC1OC(n2ccc(N)nc2=O)C(O)C1O (centres undefined)
GI50 [1]: 4490 nM (inactive)
GI50 [2]: 753 nM (active)
GI50 [3]: 10.6 nM (active)
GI50 [4]: > 69000 nM (inactive)
GI50 [5]: 8470 nM (inactive)
GI50 [6]: 2220 nM (inactive)
GI50 [7]: 590 nM (active)
GI50 [8]: > 100000 nM (inactive)
GI50 [9]: 8240 nM (inactive)
GI50 [10]: > 24800 nM (inactive)
GI50 [11]: 4700 nM (inactive)
GI50 [12]: 401 nM (active)
GI50 [13]: > 28200 nM (inactive)
GI50 [14]: > 38000 nM (inactive)
GI50 [15]: > 87900 nM (inactive)
GI50 [16]: 12100 nM (inactive)
GI50 [17]: 16900 nM (inactive)
GI50 [18]: > 100000 nM (inactive)
GI50 [19]: 1500 nM (inactive)
GI50 [20]: > 96400 nM (inactive)

O=c1c2ccccc2n2nnc3ccc(NCCNCCO)c1c32
GI50 [1]: 1890 nM (inactive)
GI50 [2]: 824 nM (active)
GI50 [3]: 948 nM (active)
GI50 [4]: 2080 nM (inactive)
GI50 [5]: 1510 nM (inactive)
GI50 [6]: 1290 nM (inactive)
GI50 [7]: 1710 nM (inactive)
GI50 [8]: 2030 nM (inactive)
GI50 [9]: 1610 nM (inactive)
GI50 [10]: 1290 nM (inactive)
GI50 [11]: 1180 nM (inactive)
GI50 [12]: 679 nM (active)
GI50 [13]: 1700 nM (inactive)
GI50 [14]: 2340 nM (inactive)
GI50 [15]: 1820 nM (inactive)
GI50 [16]: 1710 nM (inactive)
GI50 [17]: 3050 nM (inactive)
GI50 [18]: 1420 nM (inactive)
GI50 [19]: 649 nM (active)
GI50 [20]: 2790 nM (inactive)

CC(=O)O[C@H]1C(=O)[C@@]2(C)C(C(OC(=O)c3ccccc3)[C@]3(O)C[C@H](OC(=O)C(OC(=O)CCCC(=O)NCCCN(C)C)C(NC(=O)c4ccccc4)c4ccccc4)C(C)=C1C3(C)C)C1(OC(C)=O)COC1C[C@@H]2O (some centres undefined)
GI50 [1]: 60.7 nM (active)
GI50 [2]: 652 nM (active)
GI50 [3]: < 10 nM (active)
GI50 [4]: 262 nM (active)
GI50 [5]: < 10 nM (active)
GI50 [6]: < 10 nM (active)
GI50 [7]: < 10 nM (active)
GI50 [8]: < 10 nM (active)
GI50 [9]: < 10 nM (active)
GI50 [10]: < 10 nM (active)
GI50 [11]: < 10 nM (active)
GI50 [12]: < 10 nM (active)
GI50 [13]: < 10 nM (active)
GI50 [14]: < 13.9 nM (active)
GI50 [15]: < 10 nM (active)
GI50 [16]: 10.9 nM (active)
GI50 [17]: 15.2 nM (active)
GI50 [18]: < 10 nM (active)
GI50 [19]: < 10 nM (active)
GI50 [20]: 42.5 nM (active)

COc1ccccc1NC(=O)C1=C(C)NC(C)=C(C(=O)Nc2ccccc2OC)C1c1ccc(C2C(C(=O)Nc3ccccc3OC)=C(C)NC(C)=C2C(=O)Nc2ccccc2OC)cc1
GI50 [1]: 6120 nM (inactive)
GI50 [2]: 2880 nM (inactive)
GI50 [3]: 813 nM (active)
GI50 [4]: 2540 nM (inactive)
GI50 [5]: 1950 nM (inactive)
GI50 [6]: 1300 nM (inactive)
GI50 [7]: 1460 nM (inactive)
GI50 [9]: 2180 nM (inactive)
GI50 [10]: 1710 nM (inactive)
GI50 [11]: 1290 nM (inactive)
GI50 [12]: 2780 nM (inactive)
GI50 [13]: 2290 nM (inactive)
GI50 [14]: 3220 nM (inactive)
GI50 [15]: 2430 nM (inactive)
GI50 [16]: 2820 nM (inactive)
GI50 [17]: 3890 nM (inactive)
GI50 [18]: 10200 nM (inactive)
GI50 [19]: 1530 nM (inactive)
GI50 [20]: 11500 nM (inactive)
